The results in this text go back to patent US6355640B1, “Pyrazolopyridine adenosine antagonists” (Fujisawa Pharmaceutical Co., Ltd., priority 1993, dated 2002).

Take `O=C(O)CN1CCCC(n2nc(-c3c(-c4ccccc4)nn4ccccc34)ccc2=O)C1=O` (stereo not shown) [Example 117, 3-[2-(1-Carboxymethyl-2-oxopiperidin-3-yl)-3-oxo-2,3-dihydropyridazin-6-yl]-2-phenylpyrazolo[1,5-a]pyridine]: the melting point (commonly the temperature of the solid-liquid transition) is 145 to 150 °C.
The same measure for `O=C(CC1=C(n2nc(-c3c(-c4ccccc4)nn4ccccc34)ccc2=O)CCCC1)N1CCSCC1` [Example 80, 3-[2-{2-(Thiomorpholin-4-ylcarbonyl)methyl-1-cyclohexenyl}-3-oxo-2,3-dihydropyridazin-6-yl]-2-phenylpyrazolo[1,5-a]pyridine]: 180.5 to 182.5 °C; for `O=c1ccc(-c2c(-c3ccccc3)nn3ccccc23)nn1[C@H]1CC[C@@H](C(=O)O)CC1` [Example 47(1), cis-3-[2-(4-Carboxycyclohexyl)-3-oxo-2,3-dihydropyridazin-6-yl]-2-phenylpyrazolo[1,5-a]pyridine]: 296 to 298 °C; for `CC1CC(C)(C)N=C(/C=C2\CCCCC2n2nc(-c3c(-c4ccccc4)nn4ccccc34)ccc2=O)O1` (stereo not shown) [Example 97(1), (E)-3-[2-{2-(4,4,6-Trimethyl-5,6-dihydro-4H-1,3-oxazin-2-yl)methylenecyclohexyl}-3-oxo-2,3-dihydropyridazin-6-yl]-2-phenylpyrazolo[1,5-a]pyridine]: 156 to 158 °C.
The same measure for `COC(=O)COc1cccc2c1CCC(n1nc(-c3c(-c4ccccc4)nn4ccccc34)ccc1=O)C2=O` (stereo not shown) [Example 118, 3-[2-(1-Methoxycarbonylmethoxy-5-oxo-5,6,7,8-tetrahydro-6-naphthyl)-3-oxo-2,3-dihydropyridazin-6-yl]-2-phenylpyrazolo[1,5-a]pyridine]: 175 to 176 °C; for `O=C(CC1=C(n2nc(-c3c(-c4ccccc4)nn4ccccc34)ccc2=O)CCCC1)N1CCCC1` [Example 84, 3-[2-{2-(Pyrrolidin-1-ylcarbonyl)methyl-1-cyclohexenyl}-3-oxo-2,3-dihydropyridazin-6-yl]-2-phenylpyrazolo[1,5-a]pyridine]: 178 to 179 °C.
Regarding `O=C(CC1=C(n2nc(-c3c(-c4ccccc4)nn4ccccc34)ccc2=O)CCCC1)N1CCCCC1` [Example 85, 3-[2-{2-(Piperidinocarbonyl)methyl-1-cyclohexenyl}-3-oxo-2,3-dihydropyridazin-6-yl]-2-phenylpyrazolo[1,5-a]-pyridine], the melting point fell in the range of 184 to 185 °C.
The same measure for `COc1ccccc1-n1nc(-c2c(-c3ccccc3)nn3ccccc23)ccc1=O` [Example 101, 3-[2-(2-Methoxyphenyl)-3-oxo-2,3-dihydropyridazin-6-yl]-2-phenylpyrazolo[1,5-a]pyridine]: 163 °C; for `O=C(O)CC1=C(n2nc(-c3c(-c4ccccc4)nn4ccccc34)ccc2=O)CCCCC1` (hydrate or solvate) [Example 19, 3-[2-(2-carboxymethyl-1-cycloheptenyl)-3-oxo-2,3-dihydropyridazin-6-yl]-2-phenylpyrazolo[1,5-a]-pyridine]: 171 to 172 °C.
To `CNC1CCN(C(=O)CC2=C(n3nc(-c4c(-c5ccccc5)nn5ccccc45)ccc3=O)CCCC2)CC1` (hydrate or solvate) [Example 86, 3-[2-{2-(4-Methylaminopiperidinocarbonyl)methyl-1-cyclohexenyl}-3-oxo-2,3-dihydropyridazin-6-yl]-2-phenylpyrazolo[1,5-a]pyridine] belongs 101 to 105 °C.
Take `O=c1ccc(-c2c(-c3ccccc3)nn3ccccc23)nn1-c1ccccc1` [Example 99, 3-(2-phenyl-3-oxo-2,3-dihydropyridazin-6-yl)-2-phenylpyrazolo[1,5-a]pyridine]: the melting point came out at 170 °C.
The same measure for `O=C1OCCC1n1nc(-c2c(-c3ccccc3)nn3ccccc23)ccc1=O` (stereo not shown) [Example 25, 3-[2-(2-Oxo-2,3,4,5-tetrahydrofuran-3-yl)-3-oxo-2,3-dihydropyridazin-6-yl]-2-phenylpyrazolo[1,5-a]pyridine]: 179 to 180 °C.
The same measure for `O=C(O)CCCNC(=O)CC1=C(n2nc(-c3c(-c4ccccc4)nn4ccccc34)ccc2=O)CCCC1` [Example 46, 3-[2-(2-(N-(3-Carboxypropyl)carbamoyl)methyl-1-cyclohexenyl)-3-oxo-2,3-dihydropyridazin-6-yl]-2-phenylpyrazolo[1,5-a]pyridine]: 92.5 to 93 °C; for `O=c1ccc(-c2c(-c3ccccc3)nn3ccccc23)nn1C1CCCCC1=Cc1nnn[nH]1` (stereo not shown) [Example 111, 3-[2-{2-(1H-tetrazol-5-yl)methylenecyclohexyl}-3-oxo-2,3-dihydropyridazin-6-yl]-2-phenylpyrazolo[1,5-a]pyridine]: 129 to 131 °C.
As for `O=C(O)CN1CCC(n2nc(-c3c(-c4ccccc4)nn4ccccc34)ccc2=O)C1=O` (stereo not shown) [Example 42, 3-[2-(1-Carboxymethyl-2-oxo-pyrrolidin-3-yl)-3-oxo-2,3-dihydropyridazin-6-yl]-2-phenylpyrazolo[1,5-a]pyridine], the melting point fell in the range of 250 to 251 °C.
The same measure for `O=C(O)C1CCCCC1n1nc(-c2c(-c3ccccc3)nn3ccccc23)ccc1=O` (stereo not shown) [Example 109, 3-[2-(2-carboxycyclohexyl)-3-oxo-2,3-dihydropyridazin-6-yl]-2-phenylpyrazolo[1,5-a]pyridine]: 164 °C.
The same measure for `CCOC(=O)C=C1CCC(n2nc(-c3c(-c4ccccc4)nn4ccccc34)ccc2=O)CC1` (stereo not shown) [Example 94, 3-[2-(4-ethoxycarbonylmethylenecyclohexyl)-3-oxo-2,3-dihydropyridazin-6-yl]-2-phenylpyrazolo[1,5-a]-pyridine]: 166 to 168 °C; for `CCOC(=O)[C@H]1CCC(=O)[C@@H](n2nc(-c3c(-c4ccccc4)nn4ccccc34)ccc2=O)C1` (relative stereo) [Example 16, cis-3-[2-(5-Ethoxycarbonyl-2-oxocyclohexyl)-3-oxo-2,3-dihydropyridazin-6-yl]-2-phenylpyrazolo[1,5-a]pyridine]: 160 to 162 °C.
The same measure for `C=C1CCCCC1n1nc(-c2c(-c3ccccc3)nn3ccccc23)ccc1=O` (stereo not shown) [Example 93, 3-[2-(2-methylenecyclohexyl)-3-oxo-2,3-dihydropyridazin-6-yl]-2-phenylpyrazolo[1,5-a]pyridine]: 229 to 230 °C (dec.); for `CC(C)(C)OC(=O)/C=C1/CCCCC1n1nc(-c2c(-c3ccccc3)nn3ccccc23)ccc1=O` (stereo not shown) [Example 98, (Z)-3-[2-{2-(tert-butoxycarbonyl-methylene)cyclohexyl}-3-oxo-2,3-dihydropyridazin-6-yl]-2-phenylpyrazolo[1,5-a]pyridine]: 171 to 172 °C.
Consider `O=C(O)[C@H]1CCC[C@H](n2nc(-c3c(-c4ccccc4)nn4ccccc34)ccc2=O)C1` (relative stereo) [Example 41, trans-3-(2-(3-Carboxycyclohexyl)-3-oxo-2,3-dihydropyridazin-6-yl]-2-phenylpyrazolo[1,5-a]pyridine], for which the melting point is 218 to 222 °C.
To `COC(=O)[C@@H]1CC[C@H](n2nc(-c3c(-c4ccccc4)nn4ccccc34)ccc2=O)C(=O)C1` (relative stereo) [Example 10, cis-3-[2-(4-Methoxycarbonyl-2-oxocyclohexyl)-3-oxo-2,3-dihydropyridazin-6-yl]-2-phenylpyrazolo[1,5-a]pyridine] belongs 164 to 165 °C.
The same measure for `O=C1CCCCC1Oc1ccc(-c2c(-c3ccccc3)nn3ccccc23)nn1` (single isomer, unassigned) [Example 2 (less polar compound), 3-[3-(2-Oxocyclohexyl)oxypyridazin-6-yl]-2-phenylpyrazolo[1,5-a]pyridine]: 214 to 216 °C; for `O=C(CC1=C(n2nc(-c3c(-c4ccccc4)nn4ccccc34)ccc2=O)CCCC1)N1CCNCC1` [Example 113, 3-[2-{2-(piperazin-1-ylcarbonyl)methyl-1-cyclohexenyl}-3-oxo-2,3-dihydropyridazin-6-yl]-2-phenylpyrazolo[1,5-a]pyridine]: 208.5 to 209 °C; for `O=c1ccc(-c2c(-c3ccccc3)nn3ccccc23)nn1C1=C(CCO)CCCC1` [Example 105, 3-[2-{2-(2-hydroxyethyl)-1-cyclohexenyl}-3-oxo-2,3-dihydropyridazin-6-yl]-2-phenylpyrazolo[1,5-a]pyridine]: 198 to 199 °C.
To `CCOC(=O)C[C@H]1CCCC[C@H]1n1nc(-c2c(-c3ccccc3)nn3ccccc23)ccc1=O` (relative stereo) [Example 33(2), cis-3-[2-(2-Ethoxycarbonylmethylcyclohexyl)-3-oxo-2,3-dihydropyridazin-6-yl]-2-phenylpyrazolo[1,5-a]pyridine] belongs 151 to 152 °C; to `CON=C1CCCCC1n1nc(-c2c(-c3ccccc3)nn3ccccc23)ccc1=O` (stereo not shown) [Example 90, 3-[2-{2-(Methoxyimino)cyclohexyl}-3-oxo-2,3-dihydropyridazin-6-yl]-2-phenylpyrazolo[1,5-a]pyridine], 85 to 87 °C; to `O=C(O)CNC(=O)CC1=C(n2nc(-c3c(-c4ccccc4)nn4ccccc34)ccc2=O)CCCC1` [Example 55, 3-[2-{2-(N-Carboxymethylcarbamoyl)methyl-1-cyclohexenyl}-3-oxo-2,3-dihydropyridazin-6-yl]-2-phenylpyrazolo[1,5-a]pyridine], 190 to 192 °C.
In turn, `CC(C)(C)OC(=O)/C=C1\CCCCC1n1nc(-c2c(-c3ccccc3)nn3ccccc23)ccc1=O` (stereo not shown) [Example 95(3), (E)-3-[2-{2-(tert-Butoxycarbonylmethylene)-cyclohexyl}-3-oxo-2,3-dihydropyridazin-6-yl]-2-phenylpyrazolo[1,5-a]pyridine] came in with a melting point of 110 to 116 °C.
To `O=C1CCCCCC1n1nc(-c2c(-c3ccccc3)nn3ccccc23)ccc1=O` (stereo not shown) [Example 11, 3-[2-(2-Oxocycloheptyl)-3-oxo-2,3-dihydropyridazin-6-yl]-2-phenylpyrazolo[1,5-a]pyridine] belongs 112 to 114 °C.
In turn, `O=C(O)COc1cccc2c1CCC(n1nc(-c3c(-c4ccccc4)nn4ccccc34)ccc1=O)C2=O` (stereo not shown) [Example 119, 3-[2-(1-Carboxymethoxy-5-oxo-5,6,7,8-tetrahydro-6-naphthyl)-3-oxo-2,3-dihydropyridazin-6-yl]-2-phenylpyrazolo[1,5-a]pyridine] displayed a melting point of 225 to 227 °C.
